The source made the active and inactive calls. The calls are words filed in the database; no cut-off is given here.
How the values were obtained:
[1] = Growth inhibition of human leukemia cell by NCI-CLS assay; format: functional
NSCLC = assay: Growth inhibition of human NSCLC cell by NCI-CLS assay; format: functional
[2] = Growth inhibition of human colon cancer cell by NCI-CLS assay; format: functional; conditions: Cancer cell lines
[3] = Growth inhibition of human CNS cancer cell by NCI-CLS assay; format: functional; conditions: Cancer cell lines
[4] = Growth inhibition of human melanoma cell by NCI-CLS assay; format: functional
[5] = Growth inhibition of human ovarian cancer cell by NCI-CLS assay; format: functional; conditions: Cancer cell lines
[6] = Growth inhibition of human renal cancer cell by NCI-CLS assay; format: functional; conditions: Cancer cell lines
[7] = Growth inhibition of human prostate cancer cell by NCI-CLS assay; format: functional; conditions: Cancer cell lines
[8] = Growth inhibition of human breast cancer cell by NCI-CLS assay; format: functional; conditions: Cancer cell lines
[9] = Acute toxicity in athymic nude Swiss mouse administered as single dose; format: organism-based; conditions: in vivo
[10] = Antiproliferative activity against human M07e cells after 2 days by MTT assay; format: functional, cell-based; conditions: M-07e, 48 h
[11] = Antiproliferative activity against human B1647 cells after 2 days by MTT assay; format: functional, cell-based; conditions: B1647, 48 h
HEL = assay: Antiproliferative activity against human HEL cells after 2 days by MTT assay; format: functional, cell-based; conditions: 48 h
HUVEC = assay: Cytotoxicity against HUVEC after 2 days by MTT assay; format: cell-based; conditions: Homo sapiens, 48 h
[12] = biological target: NAD(P)H dehydrogenase [quinone] 1 (Homo sapiens) (UniProt P15559); assay: Induction of NQO1 activity in HUVEC at 5 uM after 24 to 48 hrs by fluorescence plate reader
[13] = read-out: LC50 (the source's name)

Sequence of NAD(P)H dehydrogenase [quinone] 1 (Homo sapiens) (P15559 whole entry): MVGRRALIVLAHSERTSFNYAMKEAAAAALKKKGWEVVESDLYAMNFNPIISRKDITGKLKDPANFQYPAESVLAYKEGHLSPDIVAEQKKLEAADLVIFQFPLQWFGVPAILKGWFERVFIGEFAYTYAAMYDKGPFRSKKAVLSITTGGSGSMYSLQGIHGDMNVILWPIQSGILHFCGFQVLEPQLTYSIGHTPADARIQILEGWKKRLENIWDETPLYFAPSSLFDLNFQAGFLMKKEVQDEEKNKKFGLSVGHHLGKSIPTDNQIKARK

In the case of `COc1cc2c(c(OC)c1OC)/C(=C\c1cccc(/C=C3/C(=O)Nc4cc(OC)c(OC)c(OC)c43)n1)C(=O)N2`, the GI50 [1] is reported as 200 nM, the LC50 [1] is reported as 67600 nM and the TGI [1] is reported as 2800 nM. The GI50 (NSCLC) was 300 nM, the LC50 (NSCLC) was 33100 nM and the TGI (NSCLC) was 1500 nM. The GI50 [2] was 200 nM, the LC50 [2] was 7200 nM and the TGI [2] was 500 nM. The GI50 [3] was 300 nM, the TGI [3] was 800 nM and the CC50 [3, 13] was 3200 nM. It also gave a GI50 [4] of 200 nM, a TGI [4] of 500 nM and a CC50 [4, 13] of 2700 nM. For the same molecule, the GI50 [5] was 300 nM, the TGI [5] was 800 nM and the CC50 [5, 13] was 5700 nM. For the same molecule, the GI50 [6] was 300 nM, the TGI [6] was 700 nM and the CC50 [6, 13] was 4500 nM. The GI50 [7] was 300 nM, the TGI [7] was 1000 nM and the CC50 [7, 13] was 16600 nM. The GI50 [8] was 200 nM, the TGI [8] was 1500 nM and the CC50 [8, 13] was 24600 nM. For the same molecule, the MTD [9] was 100 mg/kg, the IC50 [10] was 1000 nM and the IC50 [11] was 1000 nM. For the same molecule, the IC50 (HEL) was 1000 nM, the IC50 (HUVEC) was under 5000 nM and the Activity [12] was “Active”.
